# From patent US6608057B2, “Compounds useful as reversible inhibitors of cathepsin S” (Boehringer Ingelheim Pharmaceuticals, Inc., priority 1999, dated 2003)
compound,measurement,value
"CC(C)C[C@H](NC(=O)N1CCOCC1)C(=O)N[C@@H](CCc1ccccc1)C(=O)c1oc(-c2ccccc2)nc1-c1ccccc1 [Example 5, Morpholine-4-carboxylic acid {1-(S)-[1-(S)-(2,4-diphenyloxazole-5-carbonyl)-3-phenylpropylcarbamoyl]-3-methylbutyl} amide]",melting point,83 to 85 °C
